# Key:
# MT-4 cell = assay: Cytotoxicity on MT-4 cells (Pharmacological Tests 1, 2 and 3); assay type: cell-based; set-up: key to Toxicity: --: no cytotoxicity or no anti-HIV activity; key to Cytotoxicity: --: no toxicity; settings: for Cytotoxicity: Table 2; for Toxicity: Table 4
# Experimental: (§1) A medium in which MT-4 cell [Miyoshi I. et al., Gann Monogr., 28, 219-228 (1982)] was included in a proportion of 2×10^5 cell/ml medium (RPMI-1640+10%FCS) was prepared. To each of 500 μl portion of the medium were added sulfated colominic acid obtained from examples 1 and 2 at a concentration shown in table 1. After two hours addition of the esters, HIV was infected to cells in each well in the proportion of 5×10^3 PFU/well. After 4 days from HIV infection, smear of MT-4 cell was prepared to detect HIV antigen positive cells by immunofluorescence (Harada S. et al., Science, 229, 563-566 (1985); Takeuchi Y., et al., Jpn. J. Cancer Res. (Gann), 78, 11-15 (1987)).
# (§2) In tables 1 and 3, a sample having a concentration of sulfated colominic acid of zero was regarded as control. In table 2, "--" indicates no toxicity.
# A cytotoxicity of sulfated colominic acid was assayed in the same manner as Pharmacological Test 1. Specifically, after MT-4 cell prepared at a concentration of 1×10^5 cell/ml was cultured for 4 days in the presence of a variety of concentrations of sulfated colominic acid, the number of cells was counted. Cytotoxicity was evaluated by calculating a cell survival ratio in each final concentration of sulfated colominic acid taking as 100% the cell survival ratio of control, in which final concentration of sulfated colominic acid is zero.
# (§3) In order to determine the minimum number of monomer unit of N-acetylneuraminic acid homopolymer, sulfate esters of formula (I) in which n is 1-6 were produced. A cytotoxicity and an anti-HIV activity of each sulfate ester were determined in the same manner as pharmacological tests 1 and 2.
# HIV = assay: Anti-HIV activity: HIV antigen positive MT-4 cells by immunofluorescence (Pharmacological Tests 1 and 3); assay type: cell-based
# Experimental: as §1
# An anti-HIV activity of colominic acid which is a starting material in place of sulfated colominic acid was determined in the same manner as above.
# as §2, §3
substance,measurement,setting,value
colominic acid [reference compound],Cytotoxicity,MT-4 cell; final concentration 1 μg/ml,--
same,Cytotoxicity,MT-4 cell; final concentration 3 μg/ml,--
same,Cytotoxicity,MT-4 cell; final concentration 10 μg/ml,--
same,Cytotoxicity,MT-4 cell; final concentration 30 μg/ml,--
same,Cytotoxicity,MT-4 cell; final concentration 100 μg/ml,--
same,anti-HIV activity (in words),"HIV; Table 2, 1-100 μg/ml",does not have an anti-HIV activity
same,Cell infection ratio,"HIV; Table 2, final concentration 1 μg/ml",> 95%
same,Cell infection ratio,"HIV; Table 2, final concentration 3 μg/ml",> 95%
same,Cell infection ratio,"HIV; Table 2, final concentration 10 μg/ml",> 95%
same,Cell infection ratio,"HIV; Table 2, final concentration 30 μg/ml",> 95%
same,Cell infection ratio,"HIV; Table 2, final concentration 100 μg/ml",> 95%
sulfate ester of N-acetylneuraminic acid hexamer [DP-6-S],Toxicity,MT-4 cell; final concentration 0.1 μg/ml,--
same,Toxicity,MT-4 cell; final concentration 0.3 μg/ml,--
same,Toxicity,MT-4 cell; final concentration 1 μg/ml,--
same,Toxicity,MT-4 cell; final concentration 3 μg/ml,--
same,Toxicity,MT-4 cell; final concentration 10 μg/ml,--
same,Toxicity,MT-4 cell; final concentration 30 μg/ml,--
same,Toxicity,MT-4 cell; final concentration 100 μg/ml,--
same,IC50,"HIV; Table 4, anti-HIV, MT-4 cells",20 µg/mL
same,Cell infection ratio,"HIV; Table 4, final concentration 0.1 μg/ml",> 95%
same,Cell infection ratio,"HIV; Table 4, final concentration 0.3 μg/ml",> 95%
same,Cell infection ratio,"HIV; Table 4, final concentration 1 μg/ml",> 95%
same,Cell infection ratio,"HIV; Table 4, final concentration 3 μg/ml",> 95%
same,Cell infection ratio,"HIV; Table 4, final concentration 10 μg/ml",80%
same,Cell infection ratio,"HIV; Table 4, final concentration 30 μg/ml",30%
same,Cell infection ratio,"HIV; Table 4, final concentration 100 μg/ml",< 5%
